Results: US8129355B2, “Ketone ligands for modulating the expression of exogenous genes via an ecdysone receptor complex” (priority 2002, dated 2012)

What was measured:
[1] = target: T1, GAL4 DBD (1-147)-CfEcR(DEF)/VP16AD-βRXREF-LmUSPEF (Choristoneura fumiferana, UniProt O77240); assay: 27-63 assay: luciferase reporter gene expression in stable CHO cell clone 27-63; settings: for 27-63 Rel Max FI: maximum fold induction at any concentration relative to that of GS-E ligand; for CC50: read-out: 27-63 LC50, average, dose response, three-parameter logistic model; for Fold Induction Average, 27-63 Assay (33 μM): single dose 33 μM, RLU ligand treated / RLU DMSO treated cells
T1 sequence (O77240 191-513): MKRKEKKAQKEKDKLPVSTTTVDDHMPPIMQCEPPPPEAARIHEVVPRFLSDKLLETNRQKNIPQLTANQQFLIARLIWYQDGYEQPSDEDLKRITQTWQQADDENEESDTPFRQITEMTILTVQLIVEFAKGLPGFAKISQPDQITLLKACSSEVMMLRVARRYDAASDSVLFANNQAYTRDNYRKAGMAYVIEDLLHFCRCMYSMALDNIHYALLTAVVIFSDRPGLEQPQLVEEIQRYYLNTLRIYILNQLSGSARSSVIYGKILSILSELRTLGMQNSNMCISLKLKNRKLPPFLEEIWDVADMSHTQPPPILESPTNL
T1 sequence (P28702 296-455 partner limits assumed): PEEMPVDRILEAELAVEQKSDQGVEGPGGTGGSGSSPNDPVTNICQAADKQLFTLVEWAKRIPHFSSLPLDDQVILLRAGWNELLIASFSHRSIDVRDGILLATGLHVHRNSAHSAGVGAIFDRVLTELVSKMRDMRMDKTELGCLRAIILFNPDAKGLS
From the text: GAL4 DBD (1-147)-CfEcR(DEF)/VP16AD-βRXREF-LmUSPEF: The wild-type D, E, and F domains from spruce budworm Choristoneura fumiferana EcR (“CfEcR-DEF”; SEQ ID NO: 1) were fused to a GAL4 DNA binding domain (“Gal4 DBD1-147”; nucleotides 31 to 471 of SEQ ID NO: 2) and placed under the control of a phosphoglycerate kinase promoter (“PGK”; SEQ ID NO: 3). Helices 1 through 8 of the EF domains from Homo sapiens RXRβ and helices 9 through 12 of the EF domains of Locusta migratoria Ultraspiracle Protein (“HsRXRβ-EF-LmUSP-EF”; SEQ ID NO: 4) were fused to the transactivation domain from VP16 (“VP16AD”; SEQ ID NO: 5) and placed under the control of an elongation factor-1α promoter (“EF-1α”; SEQ ID NO: 6). Five consensus GAL4 response element binding sites (“5XGAL4RE”; comprising 5 copies of a GAL4RE comprising SEQ ID NO: 7) were fused to a synthetic TATA minimal promoter (SEQ ID NO: 8) and placed upstream of the luciferase reporter gene (SEQ ID NO: 9).
CHO cells were transiently transfected with transcription cassettes for GAL4 DBD (1-147) CfEcR(DEF) and for VP16AD βRXREF-LmUSPEF controlled by ubiquitously active cellular promoters (PGK and EF-1α, respectively) on a single plasmid. Stably transfected cells were selected by Zeocin resistance. Individually isolated CHO cell clones were transiently transfected with a GAL4 RE-luciferase reporter (pFR Luc). 27-63 clone was selected using Hygromycin.
Cells were trypsinized and diluted to a concentration of 2.5×10^4 cells mL. 100 μL of cell suspension was placed in each well of a 96 well plate and incubated at 37° C. under 5% CO2 for 24 h. Ligand stock solutions were prepared in DMSO and diluted 300 fold for all treatments. Dose response testing consisted of 8 concentrations ranging from 33 μM to 0.01 μM.
Luciferase reporter gene expression was measured 48 h after cell treatment using Bright-Glo™ Luciferase Assay System from Promega (E2650). Luminescence was detected at room temperature using a Dynex MLX microtiter plate luminometer.
Fold inductions were calculated from single dose testing by dividing relative light units (RLU) in ligand treated cells by RLU in DMSO treated cells. BC50s were calculated from dose response data using a three-parameter logistic model.

[2] = target: T2, Gal4 DBD/AaEcR (DEF) with VP16-βRXR-E (Aedes aegypti, UniProt P49880); assay: cell-based; format: cell-based; settings: for Fold Induction Average, AA_3T3 Assay (33 μM): single dose 33 μM, RLU ligand treated / RLU DMSO treated cells
T2 construct: The wildtype D, E, and F domains from mosquito Aedes aegypti EcR (“AaEcR-DEF”); expressed in transfected cells; host or cells: 3T3 cells, transient transfection (Superfect)
Procedure: 3T3 cells were trypsinized and plated at 2.5×10^3 cells/well on a 96-well plate. After incubation for 24 h at 37° C. under 5% CO2, cells were transfected with the Gal4 DBD/AaEcR (DEF) gene expression cassette and the reporter plasmid, pFRLuc, containing a 5XGAL4 response element and the firefly luciferase gene in serum free media using Superfect (Qiagen). After transfection for 4 h at 37° C., the cells were treated with ligand in serum media. […] Single dose testing was performed at 33 μM.

[3] = target: T3, Bombyx mori EcR (VP16 fusion, switch construct CVBE) with 6XEcRE LacZ reporter (Bombyx mori, UniProt P49881); assay: Z3 assay: β-galactosidase (LacZ) reporter gene fold induction in stably transformed human 293 kidney cells (clone Z3); format: cell-based; settings: for Fold Induction Average, Z3 Assay (33 μM): single dose 33 μM, ligand treated / DMSO treated cells; for CC50: average, dose response, three-parameter logistic model, read-out: Z3 LC50; for Z3 Rel Max FI: maximum fold induction at any concentration relative to that of GS-E ligand
T3 construct: expressed in transfected cells; host or cells: Human 293 kidney (HEK-293) cells, retrovirally infected, clone Z3
T3 sequence (P49881 86-606 limits assumed): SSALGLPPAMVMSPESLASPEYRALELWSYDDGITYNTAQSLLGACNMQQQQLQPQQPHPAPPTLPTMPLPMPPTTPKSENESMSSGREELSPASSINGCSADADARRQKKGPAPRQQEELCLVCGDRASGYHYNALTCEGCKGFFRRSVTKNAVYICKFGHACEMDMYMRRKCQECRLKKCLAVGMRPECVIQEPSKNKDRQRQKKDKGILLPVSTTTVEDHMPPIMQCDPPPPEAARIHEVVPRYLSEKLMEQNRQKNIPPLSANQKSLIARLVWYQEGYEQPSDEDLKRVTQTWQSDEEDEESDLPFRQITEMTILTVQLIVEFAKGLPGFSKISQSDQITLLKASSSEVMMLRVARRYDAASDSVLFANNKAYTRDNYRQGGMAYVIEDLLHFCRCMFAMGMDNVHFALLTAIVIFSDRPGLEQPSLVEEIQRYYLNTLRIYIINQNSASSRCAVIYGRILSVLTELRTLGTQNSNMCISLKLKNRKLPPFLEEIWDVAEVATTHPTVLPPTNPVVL
T3 sequence (P19793 1-462 partner): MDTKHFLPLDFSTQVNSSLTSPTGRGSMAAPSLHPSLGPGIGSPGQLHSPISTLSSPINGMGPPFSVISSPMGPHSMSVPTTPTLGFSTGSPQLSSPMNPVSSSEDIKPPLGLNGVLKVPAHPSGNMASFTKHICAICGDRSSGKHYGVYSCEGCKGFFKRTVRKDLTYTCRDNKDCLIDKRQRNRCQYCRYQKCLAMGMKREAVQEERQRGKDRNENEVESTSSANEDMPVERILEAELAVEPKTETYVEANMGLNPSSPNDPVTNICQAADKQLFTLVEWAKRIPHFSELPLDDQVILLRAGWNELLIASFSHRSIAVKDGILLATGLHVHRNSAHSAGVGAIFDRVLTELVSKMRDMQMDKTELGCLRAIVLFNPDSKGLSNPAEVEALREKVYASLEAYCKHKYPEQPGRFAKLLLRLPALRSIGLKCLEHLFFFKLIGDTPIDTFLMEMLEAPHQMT
Summary of the method: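 β-Galactosidase read 48 h after dosing by bioluminescent assay; ligand added at 33 μM with DMSO held at 0.03%. The cells are stable 293 clone Z3, expressing a CMV-driven VP16 fusion of Bombyx mori EcR residues 26-546 plus six EcRE copies upstream of lacZ.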

[4] = target: T4, GAL4 DBD-CfEcR(DEF)/VP16AD-MmRXRE (Choristoneura fumiferana, UniProt O77240); assay: cell-based
T4 sequence (O77240 1-513): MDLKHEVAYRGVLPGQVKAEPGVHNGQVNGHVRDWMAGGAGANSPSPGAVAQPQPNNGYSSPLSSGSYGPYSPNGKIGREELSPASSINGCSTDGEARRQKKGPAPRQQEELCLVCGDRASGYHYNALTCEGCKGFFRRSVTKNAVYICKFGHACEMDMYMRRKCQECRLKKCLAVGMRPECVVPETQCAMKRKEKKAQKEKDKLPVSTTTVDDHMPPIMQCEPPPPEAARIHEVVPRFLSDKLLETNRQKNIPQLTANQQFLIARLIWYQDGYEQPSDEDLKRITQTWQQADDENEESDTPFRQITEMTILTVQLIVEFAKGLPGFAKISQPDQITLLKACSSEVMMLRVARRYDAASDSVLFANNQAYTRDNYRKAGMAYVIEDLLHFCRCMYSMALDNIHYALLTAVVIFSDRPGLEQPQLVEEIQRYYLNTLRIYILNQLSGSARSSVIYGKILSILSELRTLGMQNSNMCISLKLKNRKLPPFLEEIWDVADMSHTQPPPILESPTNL
Summary of the method: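 Stable CHO clone 13B3 expressing GAL4 DBD-CfEcR(DEF) and VP16AD-mouse RXR(DE) with GAL4 RE-luciferase reporter. Ligands tested at 8 concentrations, 33–0.01 μM; luciferase read 48 h after treatment. Fold induction versus DMSO; BC50 from three-parameter logistic fit.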

[5] = maximum fold induction at any concentration relative to that of GS-E ligand

T2 sequence (P28704 286-520 A311G/G315S/G445S/I449V): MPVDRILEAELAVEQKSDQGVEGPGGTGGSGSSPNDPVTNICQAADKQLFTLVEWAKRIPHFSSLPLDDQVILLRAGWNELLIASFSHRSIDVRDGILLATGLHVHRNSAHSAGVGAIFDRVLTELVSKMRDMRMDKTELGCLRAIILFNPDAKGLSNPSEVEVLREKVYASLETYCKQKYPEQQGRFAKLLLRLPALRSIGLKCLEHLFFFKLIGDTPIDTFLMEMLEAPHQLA
T2 sequence (P49880 405-776): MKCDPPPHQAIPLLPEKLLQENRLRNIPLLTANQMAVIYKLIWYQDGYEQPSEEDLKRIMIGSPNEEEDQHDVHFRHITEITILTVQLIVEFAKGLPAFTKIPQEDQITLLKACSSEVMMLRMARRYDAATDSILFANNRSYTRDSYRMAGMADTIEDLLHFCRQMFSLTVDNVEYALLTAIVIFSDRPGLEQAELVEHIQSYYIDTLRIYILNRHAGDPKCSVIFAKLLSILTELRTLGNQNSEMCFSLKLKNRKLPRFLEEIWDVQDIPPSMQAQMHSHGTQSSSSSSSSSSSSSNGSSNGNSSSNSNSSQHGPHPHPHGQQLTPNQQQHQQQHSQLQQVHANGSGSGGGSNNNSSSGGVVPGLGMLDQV

Compound	27-63 Rel Max FI [1]	CC50 [1]	Fold Induction Average, AA_3T3 Assay (33 μM) [2]	Fold Induction Average, Z3 Assay (33 μM) [3]	CC50 [3]	Z3 Rel Max FI [3]	other results
Cc1cc(C)cc(C(=O)C2(NC(=O)c3ccccc3C)CCCC2)c1 [Example 89]	0.07	> 33 µM	78	–	–	–	LC50 (half-maximal ligand concentration for reporter induction) ([2]; average, dose response 33 μM to 0.01 μM, three-parameter logistic model, read-out: AA_3T3 LC50): > 33 µM; AA_3T3 Rel Max FI [2, 5]: 0.00
COc1cccc(C(=O)NC2(C(=O)c3cc(C)cc(C)c3)CCCNC2)c1C (racemic) [Example 148]	–	–	–	7	–	–	Fold Induction Average, 27-63 Assay (33 μM) [1]: 2
Cc1cc(C)cc(C(=O)C2(NC(=O)c3ccc4c(c3)COCO4)CCCC2)c1 [Example 87]	0.53	18.7 µM	–	–	9.46 µM	0.17	–
CCC(=O)C1(NC(=O)c2ccccc2C)CCCC1 [Example 132]	–	–	1	–	–	–	–
COc1cccc(C(=O)NC(C)(C(=O)c2cc(C)cc(C)c2)c2ccc(F)cc2)c1C (stereo not shown) [Example 73]	–	–	1	4	–	–	–
CCC(=O)C(C)(C)NC(=O)c1ccccc1C [Example 124]	–	–	2	–	–	–	–
CCNC(=O)N1CCCC(NC(=O)c2cccc(OC)c2C)(C(=O)c2cc(C)cc(C)c2)C1 (racemic) [Example 160]	–	–	–	1	–	–	Fold Induction Average, 27-63 Assay (33 μM) [1]: 1
Cc1cc(C)cc(C(=O)C2(NC(=O)c3ccc4c(c3)OCCO4)CCCC2)c1 [Example 86]	0.80	4.88 µM	–	–	5.49 µM	0.61	–
CCc1c(C(=O)NC2(C(=O)c3cc(C)cc(C)c3)CCCC2)ccc2c1OCCO2 [Example 84]	0.82	1.02 µM	–	–	1.59 µM	0.91	–
COc1cccc(C(=O)NC2(C(=O)c3cc(C)cc(C)c3)CCN(C(=O)OC(C)C)CC2)c1C [Example 158]	–	–	1	4	–	–	–
Cc1ccccc1C(=O)NC1(C(=O)c2ccccc2)CCCC1 [Example 140]	0.00	> 33 µM	–	–	> 33 µM	0.00	–
COc1cccc(C(=O)NC(C)(C(=O)c2ccc(F)c(C)c2)C(C)C)c1C (stereo not shown) [Example 56]	0.06	> 33 µM	–	–	–	–	EC50 [4]: > 33 µM; 13B3 Rel Max FI [4, 5]: 0.00
Cc1cc(C)cc(C(=O)C2(NC(=O)c3ccc4c(c3)OCCO4)CCCCC2)c1 [Example 82]	0.84	1.78 µM	–	–	1.99 µM	0.79	–
CCC(=O)C(C)(C)NC(=O)c1ccc(CC)cc1 [Example 125]	–	–	1	–	–	–	–
COc1cccc(C(=O)NC2(C(=O)c3cc(C)cc(C)c3)CCCN(S(C)(=O)=O)C2)c1C (racemic) [Example 155]	–	–	–	4	–	–	Fold Induction Average, 27-63 Assay (33 μM) [1]: 2
Cc1cc(C)cc(C(=O)C2(NC(=O)c3ccc4c(c3C)OCO4)CCCC2)c1 [Example 85]	0.94	3.86 µM	–	–	4.76 µM	0.67	–
COc1cccc(C(=O)NC2(C(=O)c3cc(C)cc(C)c3)CCN(S(C)(=O)=O)CC2)c1C [Example 151]	–	–	–	3	–	–	Fold Induction Average, 27-63 Assay (33 μM) [1]: 1
COc1cccc(C(=O)NC2(C(=O)c3cc(C)cc(C)c3)CCCN(C(C)=O)C2)c1C (racemic) [Example 153]	–	–	–	3	–	–	Fold Induction Average, 27-63 Assay (33 μM) [1]: 1
CCc1c(C(=O)NC2(C(=O)c3cc(C)cc(C)c3)CCCCC2)ccc2c1OCCO2 [Example 80]	0.91	0.39 µM	–	–	0.74 µM	0.89	–
Cc1cc(C)cc(C(=O)C2(NC(=O)c3ccc4c(c3)COCO4)CCCCC2)c1 [Example 83]	0.70	7.06 µM	–	–	6.15 µM	0.41	–
